One experiment relates to μ-opioid receptors. As to conditions: cited from earlier work.
The test system of experiment [1] is μ-opioid receptor-β-arrestin2 association. The experiment can be described thus: BiFC β-arrestin2 recruitment in HEK293T cells. The format is cell-based. As to conditions: HEK293T coexpressing μ-opioid receptor-Yc and β-arrestin2-Yn; 10^−10 M–10^−4 M, 60 min, 37 °C; normalized by 10 μM DAMGO (100%); n = 5. On the technique in general: Activated receptors often draw arrestin, which recruitment assays turn into a signal.
Experimental: HEK293T were cultured in DMEM (Sigma-Aldrich) supplemented with 10% v/v fetal bovine serum. […] To analyze whether activation of μ-opioid receptor would induce recruitment of β-arrestin2, the Bimolecular fluorescence complementation (BiFC) based detection of μ-opioid receptor-β-arrestin2 association was conducted. The cells were seeded at 33,000 cells/well onto poly (D-lysine)-coated Greiner 655,090 imaging plates. Plates were kept in a humidified incubator at 37 °C filled with 5% CO2 for 24 h. […] After that, cells were fixated with 3% paraformaldehyde in PBS for 10 min at room temperature. Then, cells were washed once with PBS and the cell nuclei were stained for 15 min with H33342 (2 μg/mL in PBS, Sigma, St. Louis, MO, USA). H33342 was then removed by a final PBS wash. Images (4 central sites/well) were acquired automatically on the IX Ultra confocal plate reader, using 405 nm/488 nm laser lines for H33342 and complemented YFP excitation, respectively. Data was analyzed by the use of MetaXpress software (version 5.3, Sunnyvale, CA, USA, 2013) as described by Liu and co-authors [38] and normalized by 10 μM of DAMGO (100%).

The subject of experiment [2] is calcium channels in dorsal root ganglion (DRG) neurons. The format is cell-based. The note with it: rat DRG neurons.
Experimental: Intact neurons of rat dorsal root ganglia (DRG) were used for whole-cell patch-clamp recordings.
DRGs were isolated from adult Wistar rats (200 ± 300 g) and neurons cultured as described by Lindsay (1988) [35] with minor modifications. The neurons were isolated and washed by gravity in phosphate-buffered saline (PBS). The cells were than incubated with collagenase type IV (sigma, St. Louis, MO, USA) solution (5 mL of Dulbecco’s modified Eagle’s medium—DMEM; 10% v/v fetal bovine serum; penicillin 200 units/mL—streptomycin 200 μg/mL; 12.5 mg of collagenase type IV) for 90 min at 37 °C. After that, ganglions were washed 3 times by gravity in PBS and trypsin solution (2500–6000 BAEE U/ML, sigma, St. Louis, MO, USA) was added. In order to dissociate the DRG neurons, the ganglions were taken up and down with the use of a fine tipped transfer pipette. Cells were then incubated with the trypsin solution for 10 min at 37 °C. After the incubation period, 1 mL of bovine serum albumin (BSA) solution (16% v/v in PBS) was added and cells were more firmly dissociated. The cell suspension was added on the top of 3 mL BSA solution and centrifuged at 500× g for 6 min. The supernatant was discarded and the pellet was resuspended in complete media (DMEM media; 10% v/v fetal bovine serum; 1% v/v penicillin/streptomycin; 0.1% v/v NGF). […]

The text below walks through data of article PMC5793130, “The Peptide PnPP-19, a Spider Toxin Derivative, Activates μ-Opioid Receptors and Modulates Calcium Channels” (Toxins, 2018).

On to `C[C@@H](Cc1ccsc1)NC(=O)NC[C@H](Cc1ccc(O)cc1)N(C)C` [PZM21], for which, in the experiment on μ-opioid receptors, the β-arrestin2 recruitment entry is given as “minimal β-arrestin2 recruitment”.
In the case of “[D-Ala^2, MePhe^4, Gly-ol^5] encephalin [DAMGO]”, in experiment [1], the β-arrestin2 recruitment entry is given as “could clearly induce β-arrestin2 recruitment”.
`C=CCN1CC[C@]23c4c5ccc(O)c4O[C@H]2C(=O)CC[C@@]3(O)[C@H]1C5` [naloxone]: in experiment [2] (10 μM naloxone), the “effect of naloxone alone on calcium current density” value is listed as “no significant effect on the current density”. Further, in experiment [2] (10 μM naloxone for 30 min, then 1 μM PnPP-19), the “effect of naloxone pre-incubation on PnPP-19 inhibition of calcium current” value is “completely blocks the activity of PnPP-19”.
